# Experimental data: the supplement of paper PMC11061612
# How the values were obtained:
# Assay in all cases: Bliss excess, mean over the matrix (fraction); higher = more synergy
# [1] = system: DND-41 (T-Lymphoblastic Leukemia)
# How it was run: (§1)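 Cell lines grown in DMEM/F12 or RPMI with 10% FBS were plated in 1536-well plates and held 24 hours at 37°C, 5% CO2 before 72 hours of exposure to two-drug dose matrices, with DMSO typically at 0.2%. CellTiter-Glo 2.0 luminescence gave viability, which was converted to inhibition. Vehicle wells were set to 0 and blank wells to 1. Combination Emax is the second-highest inhibition in the matrix, and Bliss excess is the observed combination effect minus the expected EA + EB − EA·EB, where EA and EB are the single-agent effects.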
# [2] = system: NCI-H847 (Small Cell Lung Carcinoma)
# How it was run: as §1
# [3] = system: KM12 (Colorectal Carcinoma)
# How it was run: as §1
# MEL-JUSO (Melanoma) = system: MEL-JUSO (Melanoma)
# How it was run: as §1
# [4] = system: MKN28 (Gastric Carcinoma)
# How it was run: as §1
# [5] = system: GR-ST (B-Lymphoblastic Leukemia)
# How it was run: as §1
# [6] = system: NCI-H1792 (Lung Adenocarcinoma)
# How it was run: as §1
# [7] = system: L-540 (Hodgkin's Lymphoma)
# How it was run: as §1
# WIL2-NS (Non-Cancerous) = system: WIL2-NS (Non-Cancerous)
# How it was run: as §1
# [8] = system: SW1417 (Colorectal Carcinoma)
# How it was run: as §1
# [9] = system: HDQ-P1 (Breast Carcinoma)
# How it was run: as §1
# [10] = system: EVSA-T (Breast Carcinoma)
# How it was run: as §1
# [11] = system: SW837 (Colorectal Carcinoma)
# How it was run: as §1
# TC-71 (Ewing's Sarcoma) = system: TC-71 (Ewing's Sarcoma)
# How it was run: as §1
# [12] = system: TE-6 (Esophageal Squamous Cell Carcinoma)
# How it was run: as §1
# [13] = system: TOV-112D (Ovarian Carcinoma)
# How it was run: as §1
# [14] = system: CAMA-1 (Breast Carcinoma)
# How it was run: as §1
# [15] = system: BFTC-905 (Bladder Carcinoma)
# How it was run: as §1
# [16] = system: K-562 (Chronic Myelogenous Leukemia)
# How it was run: as §1
# [17] = system: KARPAS-45 (T-Lymphoblastic Leukemia)
# How it was run: as §1
Compound,Bliss excess [1],Bliss excess [2],Bliss excess [3],Bliss excess (MEL-JUSO (Melanoma)),Bliss excess [4],Bliss excess [5],Bliss excess [6],Bliss excess [7],Bliss excess (WIL2-NS (Non-Cancerous)),Bliss excess [8],Bliss excess [9],Bliss excess [10],Bliss excess [11],Bliss excess (TC-71 (Ewing's Sarcoma)),Bliss excess [12],Bliss excess [13],Bliss excess [14],Bliss excess [15],Bliss excess [16],Bliss excess [17]
"Cc1c2c(nn1C)CSCc1cc(n(C)n1)CSc1cc(c3ccccc3c1)OCCCc1c(C(=O)O)n(C)c3c-2c(Cl)ccc13 [AZD5991] + Cc1cc2ncnn2cc1Nc1ncc2c(n1)n(C1CCOCC1)c(=O)n2C [AZD7648] (first compound max 1 µM, 7x7, partner max 10 µM)",-0.0023,0.0083,-0.0073,-0.0453,0.0046,-0.149,-0.0248,-0.0036,0.0039,0.0054,-0.0352,-0.0156,-0.0454,-0.0745,-0.0874,-0.0214,-0.0456,-0.0282,0.0044,-0.0163
"CC(=O)Nc1cccc(-n2c(=O)n(C3CC3)c(=O)c3c(Nc4ccc(I)cc4F)n(C)c(=O)c(C)c32)c1 [Trametinib] + Cc1nc(-c2cn3c(n2)-c2ccc(-c4cnn(C(C)(C)C(N)=O)c4)cc2OCC3)n(C(C)C)n1 [Taselisib] (first compound max 1 µM, 7x7, partner max 10 µM)",0.164,0.0603,0.0284,0.12,0.0966,-0.0059,0.109,0.0227,0.174,-0.0045,0.221,-0.0335,0.05,0.136,0.0911,0.176,-0.0565,0.167,0.151,0.112
"CCN(CCO)CCCOc1ccc2c(Nc3cc(CC(=O)Nc4cccc(F)c4)[nH]n3)ncnc2c1 [AZD2811] + C[C@@H]1COCCN1C2=NC(=NC(=C2)C3(CC3)[S@](=N)(=O)C)C4=C5C=CNC5=NC=C4 [AZD6738] (first compound max 1 µM, 7x7, partner max 10 µM)",-0.018,-0.0089,-0.0709,-0.0644,-0.0513,-0.0298,-0.0577,-0.0078,0.0036,-0.0709,-0.0597,-0.0263,-0.0252,-0.0335,-0.0175,0.0433,-0.0417,-0.0462,-0.0494,-0.0944
"CC1(C)CCC(CN2CCN(c3ccc(C(=O)NS(=O)(=O)c4ccc(NCC5CCOCC5)c([N+](=O)[O-])c4)c(Oc4cnc5[nH]ccc5c4)c3)CC2)=C(c2ccc(Cl)cc2)C1 [Venetoclax] + C[C@@H]1COCCN1C2=NC(=NC(=C2)C3(CC3)[S@](=N)(=O)C)C4=C5C=CNC5=NC=C4 [AZD6738] (first compound max 1 µM, 7x7, partner max 10 µM)",0.0191,0.0082,0.0189,-0.013,-0.009,-0.2,-0.018,0.028,-0.0346,-0.0247,-0.0327,0.0144,-0.003,-0.0299,-0.0127,-0.0251,-0.105,-0.032,-0.0039,0.0449
"CN(C)CCCOc1ccc(-c2ccc3ncc4c(c3c2)n(C2CCOCC2)c(=O)n4C)cn1 [AZD0156] + CCN(CCO)CCCOc1ccc2c(Nc3cc(CC(=O)Nc4cccc(F)c4)[nH]n3)ncnc2c1 [AZD2811] (first compound max 1 µM, 7x7, partner max 1 µM)",0.0072,-0.0122,-0.0163,-0.0039,-0.0295,0.0033,-0.0032,0.0074,-0.003,-0.0418,-0.0634,0.0104,-0.0263,0.0495,0.0127,-0.0025,-0.0318,0.0116,-0.0011,-0.0515
"CC1(C)CCC(CN2CCN(c3ccc(C(=O)NS(=O)(=O)c4ccc(NCC5CCOCC5)c([N+](=O)[O-])c4)c(Oc4cnc5[nH]ccc5c4)c3)CC2)=C(c2ccc(Cl)cc2)C1 [Venetoclax] + COc1cc(Nc2ncc3c(n2)-c2ccc(Cl)cc2C(c2c(F)cccc2OC)=NC3)ccc1C(=O)O [Alisertib] (first compound max 1 µM, 7x7, partner max 10 µM)",0.116,0.0304,-0.0669,-0.0463,-0.0541,0.0444,0.0603,0.161,-0.0522,-0.0705,-0.0185,0.0434,-0.0319,0.0868,0.0047,0.116,-0.0072,-0.0387,0.0498,0.0544
"Cc1c2c(nn1C)CSCc1cc(n(C)n1)CSc1cc(c3ccccc3c1)OCCCc1c(C(=O)O)n(C)c3c-2c(Cl)ccc13 [AZD5991] + CN(C)CCCOc1ccc(-c2ccc3ncc4c(c3c2)n(C2CCOCC2)c(=O)n4C)cn1 [AZD0156] (first compound max 1 µM, 7x7, partner max 1 µM)",0.0195,-0.0131,-0.0453,0.0023,0.0021,-0.112,0.0004,-0.0021,-0.0099,0.0308,0.0104,-0.0304,0.0004,-0.001,-0.0167,-0.0265,0.002,0.0304,0.0048,-0.0403
